Holding throughout (assay type): biochemical
For test [1], the target named is T1, TYK2 (Homo sapiens, UniProt P29597).
T1 construct: JAK1 (aa 850-1154) and TYK2 (aa 871-1187) are expressed with an N-terminally fused GST-tag; GST (N); purchased Carna Biosciences, Inc; host or cells: baculovirus expression system
T1 sequence (P29597 871-1187): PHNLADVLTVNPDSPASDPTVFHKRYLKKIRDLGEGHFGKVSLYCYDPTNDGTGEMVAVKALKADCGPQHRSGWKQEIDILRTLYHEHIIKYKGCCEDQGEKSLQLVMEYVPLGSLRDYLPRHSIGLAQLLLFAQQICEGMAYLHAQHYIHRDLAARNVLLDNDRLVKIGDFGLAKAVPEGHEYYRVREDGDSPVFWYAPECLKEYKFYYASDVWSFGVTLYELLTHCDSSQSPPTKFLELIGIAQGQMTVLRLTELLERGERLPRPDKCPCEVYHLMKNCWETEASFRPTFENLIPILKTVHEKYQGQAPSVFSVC
The experiment in a line: TYK2 kinase assay (HTRF, inhibition of phosphorylation of a synthetic peptide). As to conditions: catalytic domain aa 871-1187, GST-tag; 13 μM ATP (Km); read-out: TYK2 kinase inhibitory activity (EC50). The method in brief:
(§1)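 HTRF detection (streptavidin-XL665, cryptate anti-phospho antibody, overnight in the dark) after EDTA stop of a 20-30 min RT reaction on 1 μM TK substrate-biotin. Km-level ATP per kinase: 7 μM for JAK1 and 13 μM for TYK2, both N-terminal GST, with 50 nM SEB; 4 μM for JAK2 and 2 μM for JAK3, both His-tagged. Catalytic domains only; DMSO 0.75%.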

Test [2] deals with T2, JAK2 (Homo sapiens, UniProt O60674).
T2 construct: All four purified enzymes contain only the catalytic domain; His (N); purchased Carna Biosciences, Inc; host or cells: baculovirus expression system
T2 sequence (O60674 849-1124 limits assumed): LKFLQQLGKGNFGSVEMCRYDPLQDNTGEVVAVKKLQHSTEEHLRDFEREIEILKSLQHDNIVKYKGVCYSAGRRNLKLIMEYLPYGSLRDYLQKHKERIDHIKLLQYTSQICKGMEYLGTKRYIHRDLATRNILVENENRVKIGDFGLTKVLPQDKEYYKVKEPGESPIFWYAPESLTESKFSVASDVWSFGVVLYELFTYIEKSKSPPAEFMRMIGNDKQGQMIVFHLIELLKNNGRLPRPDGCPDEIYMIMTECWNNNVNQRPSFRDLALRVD
The test is described as follows: JAK2 kinase assay (HTRF, inhibition of phosphorylation of a synthetic peptide). As to conditions: catalytic domain, His-tag; 4 μM ATP (Km); read-out: JAK2 kinase inhibitory activity (EC50). The method in brief:
as §1
For orientation: TR-FRET usually uses a lanthanide donor and a delayed reading to cut background.

Test [3] concerns the target T3, JAK3 (Homo sapiens, UniProt P52333).
T3 construct: All four purified enzymes contain only the catalytic domain; His (N); purchased Carna Biosciences, Inc; host or cells: baculovirus expression system
The experiment in a line: JAK3 kinase assay (HTRF, inhibition of phosphorylation of a synthetic peptide). The following applies: catalytic domain, His-tag; 2 μM ATP (Km); read-out: JAK3 kinase inhibitory activity (EC50). The method in brief:
as §1

The target of test [4] is T4, JAK1 (Homo sapiens, UniProt P23458).
T4 construct: JAK1 (aa 850-1154) and TYK2 (aa 871-1187) are expressed with an N-terminally fused GST-tag; GST (N); purchased Carna Biosciences, Inc; host or cells: baculovirus expression system
T4 sequence (P23458 850-1154): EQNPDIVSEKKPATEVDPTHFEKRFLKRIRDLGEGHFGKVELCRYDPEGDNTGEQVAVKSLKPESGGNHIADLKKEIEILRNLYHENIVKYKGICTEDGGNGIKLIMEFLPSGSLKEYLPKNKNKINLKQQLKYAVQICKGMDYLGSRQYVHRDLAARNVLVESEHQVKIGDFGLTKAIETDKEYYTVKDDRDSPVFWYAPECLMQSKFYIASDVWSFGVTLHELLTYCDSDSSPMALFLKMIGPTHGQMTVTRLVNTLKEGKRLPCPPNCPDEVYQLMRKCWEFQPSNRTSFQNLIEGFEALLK
The experiment in a line: JAK1 kinase assay (HTRF, inhibition of phosphorylation of a synthetic peptide). As to conditions: catalytic domain aa 850-1154, GST-tag; 7 μM ATP (Km); read-out: JAK1 kinase inhibitory activity (EC50). The method in brief:
as §1

This passage reports EC50 results from US9586961B2, “Homopiperazine derivatives as protein tyrosine kinase inhibitors and pharmaceutical use thereof” (LEO PHARMA A/S, priority 2010, dated 2017).

pEC50: −log10 of the molar value.

T3 sequence (P52333 822-1111 limits assumed): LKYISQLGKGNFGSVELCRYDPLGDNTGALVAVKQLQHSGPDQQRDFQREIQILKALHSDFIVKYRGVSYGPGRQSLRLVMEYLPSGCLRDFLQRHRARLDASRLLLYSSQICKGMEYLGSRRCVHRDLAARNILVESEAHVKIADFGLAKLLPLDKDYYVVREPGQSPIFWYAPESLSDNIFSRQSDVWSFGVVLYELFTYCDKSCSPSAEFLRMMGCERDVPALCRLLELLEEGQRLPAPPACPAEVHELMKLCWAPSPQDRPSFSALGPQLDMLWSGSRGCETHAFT

Consider `N#Cc1ccc(C(=O)N2CCN(c3ncnc4[nH]ccc34)CC3(CC3)C2)s1` [Example 51, 5-[5-(7H-pyrrolo[2,3-d]pyrimidin-4-yl)-5,8-diazaspiro[2.6]nonane-8-carbonyl]thiophene-2-carbonitrile], for which the pEC50 (as a rule, the negative decadic logarithm of the EC50, by convention in mol/L) in test [1] was 6.00 to 7.00; in test [2], above 7.00; in test [3], above 7.00; in test [4], above 7.00.

For the molecule `COc1cc(S(N)(=O)=O)ccc1C(=O)N1CCN(c2ncnc3[nH]ccc23)CC2(CC2)C1` [Example 52, 3-methoxy-4-[5-(7H-pyrrolo[2,3-d]pyrimidin-4-yl)-5,8-diazaspiro[2.6]nonane-8-carbonyl]benzenesulfonamide], the negative-log EC50 (pEC50) in test [1] was below 6.00; in test [2] it was above 7.00; in test [3], 6.00 to 7.00; in test [4], 6.00 to 7.00.

Turning to `COc1cc(C(=O)N2CCN(c3ncnc4[nH]ccc34)CC3(CC3)C2)ccc1S(N)(=O)=O` [Example 53, 2-methoxy-4-[5-(7H-pyrrolo[2,3-d]pyrimidin-4-yl)-5,8-diazaspiro[2.6]nonane-8-carbonyl]benzenesulfonamide], the pEC50 in test [1] is below 6.00; in test [2], 6.00 to 7.00; in test [3] it was below 6.00; in test [4], 6.00 to 7.00.

As to `NS(=O)(=O)c1ccc(/C=C/C(=O)N2CCN(c3ncnc4[nH]ccc34)CC3(CC3)C2)cc1` [Example 54, 4-[(E)-3-oxo-3-[5-(7H-pyrrolo[2,3-d]pyrimidin-4-yl)-5,8-diazaspiro[2.6]nonan-8-yl]prop-1-enyl]benzenesulfonamide], the pEC50 is 6.00 to 7.00 in test [1], above 7.00 in test [2], 6.00 to 7.00 in test [3] and above 7.00 in test [4].

With `CS(=O)(=O)c1ccc(CC(=O)N2CCN(c3ncnc4[nH]ccc34)CC3(CC3)C2)cc1` [Example 55, 2-(4-methylsulfonylphenyl)-1-[5-(7H-pyrrolo[2,3-d]pyrimidin-4-yl)-5,8-diazaspiro[2.6]nonan-8-yl]ethanone], the pEC50 was below 6.00 in test [1], above 7.00 in test [2], 6.00 to 7.00 in test [3] and above 7.00 in test [4].

`N#Cc1ccc(C(=O)N2CCCN(c3ncnc4[nH]ccc34)CC23CC3)cc1` [Example 56, 4-[5-(7H-pyrrolo[2,3-d]pyrimidin-4-yl)-5,9-diazaspiro[2.6]nonane-9-carbonyl]benzonitrile]: the pEC50 in test [1] is below 6.00; in test [2], above 7.00; in test [3], 6.00 to 7.00; in test [4] it was above 7.00.

For `N#Cc1cccc(C(=O)N2CCCN(c3ncnc4[nH]ccc34)CC23CC3)c1` [Example 57, 3-[5-(7H-pyrrolo[2,3-d]pyrimidin-4-yl)-5,9-diazaspiro[2.6]nonane-9-carbonyl]benzonitrile], the pEC50 is 6.00 to 7.00 in test [1], above 7.00 in test [2], 6.00 to 7.00 in test [3] and 6.00 to 7.00 in test [4].

For `N#Cc1cccc(CC(=O)N2CCCN(c3ncnc4[nH]ccc34)CC23CC3)c1` [Example 58, 3-[2-oxo-2-[5-(7H-pyrrolo[2,3-d]pyrimidin-4-yl)-5,9-diazaspiro[2.6]nonan-9-yl]ethyl]benzonitrile], the pEC50 in test [1], in test [2], in test [3] and in test [4] was below 6.00 in each case.

Regarding `N#Cc1ccc(CC(=O)N2CCCN(c3ncnc4[nH]ccc34)CC23CC3)cc1` [Example 59, 4-[2-oxo-2-[5-(7H-pyrrolo[2,3-d]pyrimidin-4-yl)-5,9-diazaspiro[2.6]nonan-9-yl]ethyl]benzonitrile], the pEC50 in test [1] was below 6.00; in test [2], 6.00 to 7.00; in test [3], below 6.00; in test [4], 6.00 to 7.00.

As to `N#CC1(C(=O)N2CCCN(c3ncnc4[nH]ccc34)CC23CC3)CC1` [Example 60, 1-[5-(7H-pyrrolo[2,3-d]pyrimidin-4-yl)-5,9-diazaspiro[2.6]nonane-9-carbonyl]cyclopropanecarbonitrile], the pEC50 in test [1] is below 6.00; in test [2], above 7.00; in test [3], 6.00 to 7.00; in test [4], 6.00 to 7.00.

For the molecule `N#CCCC(=O)N1CCCN(c2ncnc3[nH]ccc23)CC12CC2` [Example 61, 4-oxo-4-[5-(7H-pyrrolo[2,3-d]pyrimidin-4-yl)-5,9-diazaspiro[2.6]nonan-9-yl]butanenitrile], the pEC50 in test [1] was below 6.00; in test [2] it was 6.00 to 7.00; in test [3] it was 6.00 to 7.00; in test [4] it was 6.00 to 7.00.

Turning to `N#Cc1ccc(C(=O)N2CCN(c3ncnc4[nH]ccc34)CC3(CC3)C2)cc1` [Example 62, 4-[5-(7H-pyrrolo[2,3-d]pyrimidin-4-yl)-5,8-diazaspiro[2.6]nonane-8-carbonyl]benzonitrile], the pEC50 in test [1] is below 6.00; in test [2], 6.00 to 7.00; in test [3], 6.00 to 7.00; in test [4], 6.00 to 7.00.

With `NS(=O)(=O)c1ccc(OCC(=O)N2CCN(c3ncnc4[nH]ccc34)CC3(CC3)C2)cc1` [Example 63, 4-[2-oxo-2-[5-(7H-pyrrolo[2,3-d]pyrimidin-4-yl)-5,8-diazaspiro[2.6]nonan-8-yl]ethoxy]benzenesulfonamide], the pEC50 in test [1], in test [2], in test [3] and in test [4] was above 7.00 throughout.

As to `NS(=O)(=O)c1ccc(NC(=O)C(=O)N2CCN(c3ncnc4[nH]ccc34)CC3(CC3)C2)cc1` [Example 64, 2-oxo-2-[5-(7H-pyrrolo[2,3-d]pyrimidin-4-yl)-5,8-diazaspiro[2.6]nonan-8-yl]-N-(4-sulfamoylphenyl)acetamide], the pEC50 in test [1] was 6.00 to 7.00; in test [2], above 7.00; in test [3] it was above 7.00; in test [4] it was above 7.00.

Regarding `NS(=O)(=O)c1ccc(-c2ccc(C(=O)N3CCN(c4ncnc5[nH]ccc45)CC4(CC4)C3)o2)cc1` [Example 65, 4-[5-[5-(7H-pyrrolo[2,3-d]pyrimidin-4-yl)-5,8-diazaspiro[2.6]nonane-8-carbonyl]-2-furyl]benzenesulfonamide], the pEC50 is 6.00 to 7.00 in test [1], above 7.00 in test [2], 6.00 to 7.00 in test [3] and above 7.00 in test [4].

With `O=C(Cc1ccc(I)cc1)N1CCN(c2ncnc3[nH]ccc23)CC2(CC2)C1` [Example 66, 2-(4-iodophenyl)-1-[5-(7H-pyrrolo[2,3-d]pyrimidin-4-yl)-5,8-diazaspiro[2.6]nonan-8-yl]ethanone], the pEC50 was 6.00 to 7.00 in test [1], above 7.00 in test [2], 6.00 to 7.00 in test [3] and above 7.00 in test [4].

On to `Nc1nc(N2CCCN(Cc3ccccc3)C3(CC3)C2)c2cc[nH]c2n1` [Example 67, 4-(9-benzyl-5,9-diazaspiro[2.6]nonan-5-yl)-7H-pyrrolo[2,3-d]pyrimidin-2-amine], for which the pEC50 in test [1], in test [2], in test [3] and in test [4] was below 6.00 throughout.

Regarding `Nc1nc(N2CCN(Cc3ccccc3)CC3(CC3)C2)c2cc[nH]c2n1` [Example 68, 4-(5-benzyl-5,8-diazaspiro[2.6]nonan-8-yl)-7H-pyrrolo[2,3-d]pyrimidin-2-amine], the pEC50 in test [1], in test [2], in test [3] and in test [4] was below 6.00 throughout.
